Measured values: PubChem BioAssay (NCI)
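The compound was tested at five concentrations on cells cultured in 96-well plates, with a 48-hour exposure period. GI50: concentration for 50% inhibition of growth. TGI is the concentration that stops growth completely.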

What was measured:
Experiment in all cases: NCI anticancer screen, dose series, 48 h
[1] = test system: OVCAR-8 ovarian
[2] = test system: M14 melanoma
[3] = test system: RPMI-8226 leukemia
[4] = test system: NCI/ADR-RES ovarian
[5] = test system: NCI-H460 lung
[6] = test system: HCT-116 colon
[7] = test system: NCI-H226 lung
[8] = test system: OVCAR-3 ovarian
[9] = test system: U251 CNS
[10] = test system: DU-145 prostate

Compound | GI50 [1] [µM] | TGI [1] [µM] | GI50 [2] [µM] | TGI [2] [µM] | GI50 [3] [µM] | TGI [3] [µM] | GI50 [4] [µM] | TGI [4] [µM] | GI50 [5] [µM] | TGI [5] [µM] | GI50 [6] [µM] | TGI [6] [µM] | GI50 [7] [µM] | TGI [7] [µM] | GI50 [8] [µM] | TGI [8] [µM] | GI50 [9] [µM] | TGI [9] [µM] | GI50 [10] [µM] | TGI [10] [µM]
N#Cc1c(-c2ccc(F)cc2)nc(N/N=C/c2c[nH]c3ccccc23)nc1N1CCOCC1 | 7.63 | 93.8 | 2.1 | 4.87 | 3.35 | > 100 | 13.2 | > 100 | 3.48 | 25.2 | 2.17 | 17.9 | 24.2 | 88 | 11.5 | 35 | 2.16 | 17.7 | 2.9 | > 100
O=c1c2ccccc2nc(Nc2cccc(Cl)c2)n1/N=C/C=C/c1ccccc1 |  | > 100 |  | > 100 |  | > 100 |  | > 100 |  | > 100 |  | > 100 |  | > 100 |  | > 100 |  | > 100 |  | > 100
CSc1nc2c(c(=O)n1C)N=C(c1ccccc1)[C@H](C(CC(=O)c1ccccc1)c1ccccc1)C(c1ccccc1)N2 (stereo not given in full) |  | > 100 |  | > 100 |  | > 100 |  | > 100 |  | > 100 |  | > 100 |  | > 100 |  | > 100 |  | > 100 |  | > 100
CC1(C)OCC2OC3([C@H]4OC(C)(C)O[C@@H]4CO)OC(C)(C)OC3C2O1 (stereo not given in full) |  | > 100 |  | > 100 |  | > 100 |  | > 100 |  | > 100 |  | > 100 |  | > 100 |  | > 100 |  | > 100 |  | > 100
O=C(Nc1ccccc1C(=O)NCCCO)/C(=C/c1ccccc1O)NC(=O)c1ccccc1 |  | > 64.6 |  | > 100 |  | > 100 |  | 69.1 |  | > 100 |  | > 75.8 |  | > 100 |  | > 100 |  | > 81.6 |  | > 100
CC1(C(=O)O)CCCC1C(=O)O (stereo not given) |  | > 100 |  | > 100 |  | > 100 |  | > 100 |  | > 100 |  | > 100 |  | > 100 |  | > 100 |  | > 100 |  | > 100
NC(=O)c1cc2ccccc2o/c1=N/O |  | > 100 |  | > 100 |  | > 100 |  | > 100 |  | > 100 |  | > 100 |  | > 100 |  | > 100 |  | > 100 |  | > 100
CCOn1c(C2(CC3CCN(C(=O)c4ccccc4)CC3)OCCO2)cc2ccccc21 |  | 29.2 |  | 33.6 |  | 28.1 |  | 33.9 |  | 27.1 |  | 29.2 |  | 20.4 |  | 30 |  | 29.9 |  | 31.9
Clc1ccc(OCc2nnc(CCCCCCCCc3nnc(COc4ccc(Cl)cc4)n3Nc3ccccc3)n2Nc2ccccc2)cc1 |  | > 100 |  | > 38.3 |  | 5.13 |  | 81.5 |  | > 100 |  | 24.2 |  | > 100 |  | 39.9 |  | > 87.4 |  | > 80.9
COc1cc(CN2CCCCC2)cc2cc(C(=O)O)c(=O)oc12 |  | > 100 |  | > 100 |  | > 100 |  | > 100 |  | > 100 |  | > 100 |  | > 100 |  | > 100 |  | > 100 |  | > 100
Brc1ccc2c(-c3csc(-c4c[nH]c5ccc(Br)cc45)n3)c[nH]c2c1 |  | 24.1 |  | 13.3 |  | > 21.4 |  | 21.2 |  | 6.89 |  | 13.9 |  | 32.1 |  | 23.2 |  | 16.5 |  | 15.5
COc1cc2c(/C=C3/C(=O)Nc4ccccc43)c(Cl)[nH]c2cc1C |  | 12.6 |  | 17 |  | 24.9 |  | 0.894 |  | 15.7 |  | 11 |  | > 100 |  | > 39.9 |  | 10.9 |  | 1.08
COCc1nc2c(OC)cc(-c3nc4ccc(N5CCN(C)CC5)cc4[nH]3)c(OC)c2[nH]1 |  | > 100 |  | 31.9 |  | > 100 |  | > 100 |  | > 100 |  | > 100 |  | > 100 |  | 77.5 |  | > 100 |  | > 100
COc1ccc2cc(NC(=O)N/N=C\c3ccc(Cl)cc3)ccc2c1 |  | > 100 |  | > 100 |  | > 100 |  | > 100 |  | > 100 |  | > 100 |  | > 100 |  | > 100 |  | > 100 |  | > 100
Brc1cc2nn(-c3ccccc3)nc2c2nonc12 |  | > 100 |  | > 100 |  | > 100 |  | > 100 |  | > 100 |  | > 100 |  | > 100 |  | > 100 |  | > 100 |  | > 100
Brc1ccc2c(-c3csc(-c4c[nH]c5cc(Br)ccc45)n3)c[nH]c2c1 |  | > 57.1 |  | > 56.5 |  | > 100 |  | > 87 |  | 53.8 |  | 32.3 |  | 99.7 |  | > 100 |  | 32.1 |  | 47.3
NC(=O)C(=CNC(=S)c1ccncc1)C(N)=O |  | > 100 |  | > 100 |  | > 100 |  | > 100 |  | > 100 |  | > 100 |  | > 100 |  | > 100 |  | > 100 |  | > 100
NC1CNC(=O)c2c(Cl)sc(Cl)c21 (stereo not given) |  | > 100 |  | > 100 |  | > 100 |  | > 100 |  | > 100 |  | > 100 |  | > 100 |  | > 100 |  | > 100 |  | > 100
